The values that follow come from patent US20060228333A1, “Methods for control of tumors and chronic infections by modulating immunologically informed carriers homing to tolerogenic organs or tissues” (priority 2004, published 2006).

In this test the test system is thymus (homing of Brown Norway rat PBMCs). The test can be described thus: Thymic homing of injected donor PBMCs after drug treatment (homed cell counting in sliced thymus). The following applies: for Thymic homing (cell number): control 6580; for Thymic homing compared with control and other treated groups: doses as in Table 1; for Activation of the epithelial cells of the thymus: stated in discussion of Example 1. Type of test: in vivo, Lewis rats. On the procedure:
Inbred male Lewis rats (LW, RT1l) were injected intramuscularly with rapamycine (RAPA; 0.1 mg/kg/d), tacrolimus (TAC; 0.2 mg/kg/d), cyclosporine A (CsA; 10 mg/kg), PGE 1 (32 ug/kg or 10 ug/kg) or a control.
One hour after the above treatments, 1.2-1.6×10^7 peripheral blood mononuclear cells (PBMCs) were obtained from Brown Norway rats (BN, RT1n). The cells were stained with IUBD and then injected intraperitoneally. 24 hours after cellular inoculation, the animals were sacrificed. A thymectomy was performed, the thymus was sliced and homed cell counting was performed. Homed cells may be counted by any method known to one of skill in the art. In this case, as the cells were stained before inoculation, the homed cells in the thymus were identified by the staining. The results of the cell counting are presented in Tables 1 and 2 for each treatment group: […]

Where [1] appears, read: Lewis rats, i.m. RAPA 0.1 mg/kg/d, TAC 0.2 mg/kg/d, CsA 10 mg/kg, 1.2-1.6 × 10^7 BN PBMCs i.p. one hour later, thymus counted 24 hours after inoculation.

On to cyclosporine A [CsA], for which the “Thymic homing compared with control and other treated groups” value is “inactivated PBMCs that homed to the thymus”; the “Activation of the epithelial cells of the thymus” value is reported as “do activate”. Under setting [1], the “Thymic homing (cell number)” value amounted to 3365.
Take `C=CC[C@@H]1/C=C(\C)C[C@H](C)C[C@H](OC)[C@H]2O[C@@](O)(C(=O)C(=O)N3CCCC[C@H]3C(=O)O[C@H](/C(C)=C/[C@@H]3CC[C@@H](O)[C@H](OC)C3)[C@H](C)[C@@H](O)CC1=O)[C@H](C)C[C@@H]2OC` [FK506, tacrolimus]: the “Thymic homing compared with control and other treated groups” value was “inactivated PBMCs that homed to the thymus”; the “Activation of the epithelial cells of the thymus” value is on record as “do activate”. Moreover, the “Thymic homing (cell number)” value under setting [1] was 2360.
For the compound `CO[C@H]1C[C@@H]2CC[C@@H](C)[C@@](O)(O2)C(=O)C(=O)N2CCCC[C@H]2C(=O)O[C@H]([C@H](C)C[C@@H]2CC[C@@H](O)[C@H](OC)C2)CC(=O)[C@H](C)/C=C(\C)[C@@H](O)[C@@H](OC)C(=O)[C@H](C)C[C@H](C)/C=C/C=C/C=C/1C` [RAPA, rapamycine], the “Thymic homing (cell number)” value under setting [1] is on record as 920.
For the compound `CCCCC[C@H](O)/C=C/[C@H]1[C@H](O)CC(=O)[C@@H]1CCCCCCC(=O)O` [PGE1], the “Thymic homing (cell number)” value (PGE1 10 ug/kg i.m., 1.6 × 10^7 donor cells injected, 24 hours) turned out to be 8890 and the “Thymic homing (cell number)” value (PGE1 32 ug/kg i.m., 1.6 × 10^7 donor cells injected, 24 hours) is 4680. For the same compound, for the setting “PGE1 high dose 32 ug/kg”, the “Effect on epithelial cells and PBMCs” value is listed as “inactivated the epithelial cells as well as the PBMCs”. Besides, the “Thymic homing compared with low dose and control” value (PGE1 high dose 32 ug/kg) is given as “less thymic homing than low doses”.
